Assays:
[1] = test system: third stage larvae of Haemonchus contortus; test: Haemonchus contortus L3 (HcL3) Assay; type: cell-based; conditions: 96 h, read-out: HcL3 Minimum Effective Dose (MED)
[2] = test system: 4th stage larvae (L4) of Dirofilaria immitis; test: Dirofilaria immitis, L4 Stage (DiL4) In Vitro Assay; type: cell-based; conditions: Dirofilaria immitis, 72 h, read-out: DiL4 Minimum Effective Dose (MED), approximately 72 hours incubation; L4 larvae assessed for survival or paralysis

Question: `CCOc1cnn(C(C)(C)c2ccc(C[C@H]3OC(=O)[C@H](CC(C)C)N(C)C(=O)[C@@H](C)OC(=O)[C@H](CC(C)C)N(C)C(=O)[C@@H](Cc4ccc(C(C)(C)n5cc(OCC)cn5)cc4)OC(=O)[C@H](CC(C)C)N(C)C(=O)[C@@H](C)OC(=O)[C@H](CC(C)C)N(C)C3=O)cc2)c1` [Example 1b-171, (3S,6R,9S,12R,15S,18R,21S,24R)-6,18-bis(4-(2-(4-ethoxy-1H-pyrazol-1-yl)propan-2-yl)benzyl)-3,9,15,21-tetraisobutyl-4,10,12,16,22,24-hexamethyl-1,7,13,19-tetraoxa-4,10,16,22-tetraazacyclotetracosan-2,5,8,11,14,17,20,23-octaone] was tested. Which minimal effective concentration [1] did it give?
Answer: ≤ 1 µM

Question: And the minimal effective concentration [2]?
Answer: ≤ 0.0001 µM

Question: What does the source list for `CC(C)C[C@H]1C(=O)O[C@H](Cc2ccc(Cn3nccc3-c3ccccn3)cc2)C(=O)N(C)[C@@H](CC(C)C)C(=O)O[C@H](C)C(=O)N(C)[C@@H](CC(C)C)C(=O)O[C@H](Cc2ccc(Cn3nccc3-c3ccccn3)cc2)C(=O)N(C)[C@@H](CC(C)C)C(=O)O[C@H](C)C(=O)N1C` [Example 1b-173, (3S,6R,9S,12R,15S,18R,21S,24R)-3,9,15,21-tetraisobutyl-4,6,10,16,18,22-hexamethyl-12,24-bis(4-((5-(pyridin-2-yl)-1H-pyrazol-1-yl)methyl)benzyl)-1,7,13,19-tetraoxa-4,10,16,22-tetraazacyclotetracosan-2,5,8,11,14,17,20,23-octaone]?
Answer: minimal effective concentration [1]: ≤ 1 µM; minimal effective concentration [2]: 0.0001 to 0.001 µM

Question: Which results are given for `CCOCc1ccnn1Cc1ccc(C[C@H]2OC(=O)[C@H](CC(C)C)N(C)C(=O)[C@@H](C)OC(=O)[C@H](CC(C)C)N(C)C(=O)[C@@H](Cc3ccc(Cn4nccc4COCC)cc3)OC(=O)[C@H](CC(C)C)N(C)C(=O)[C@@H](C)OC(=O)[C@H](CC(C)C)N(C)C2=O)cc1` [Example 1b-176, (3S,6R,9S,12R,15S,18R,21S,24R)-6,18-bis(4-((5-(ethoxymethyl)-1H-pyrazol-1-yl)methyl)benzyl)-3,9,15,21-tetraisobutyl-4,10,12,16,22,24-hexamethyl-1,7,13,19-tetraoxa-4,10,16,22-tetraazacyclotetracosan-2,5,8,11,14,17,20,23-octaone]?
Answer: minimal effective concentration [1]: ≤ 1 µM; minimal effective concentration [2]: ≤ 0.0001 µM

Question: For `Cc1cccc(-c2ccnn2Cc2ccc(C[C@H]3OC(=O)[C@H](CC(C)C)N(C)C(=O)[C@@H](C)OC(=O)[C@H](CC(C)C)N(C)C(=O)[C@@H](Cc4ccc(Cn5nccc5-c5cccc(C)n5)cc4)OC(=O)[C@H](CC(C)C)N(C)C(=O)[C@@H](C)OC(=O)[C@H](CC(C)C)N(C)C3=O)cc2)n1` [Example 1b-177, (3S,6R,9S,12R,15S,18R,21S,24R)-3,9,15,21-tetraisobutyl-4,6,10,16,18,22-hexamethyl-12,24-bis(4-((5-(6-methylpyridin-2-yl)-1H-pyrazol-1-yl)methyl)benzyl)-1,7,13,19-tetraoxa-4,10,16,22-tetraazacyclotetracosan-2,5,8,11,14,17,20,23-octaone], which minimal effective concentration [1] is on record?
Answer: ≤ 1 µM

Question: What about the minimal effective concentration [2] of the same compound?
Answer: ≤ 0.0001 µM

Question: For `CC(C)C[C@H]1C(=O)O[C@H](Cc2ccc(Cn3nccc3-c3ccc(F)cn3)cc2)C(=O)N(C)[C@@H](CC(C)C)C(=O)O[C@H](C)C(=O)N(C)[C@@H](CC(C)C)C(=O)O[C@H](Cc2ccc(Cn3nccc3-c3ccc(F)cn3)cc2)C(=O)N(C)[C@@H](CC(C)C)C(=O)O[C@H](C)C(=O)N1C` [Example 1b-189, (3S,6R,9S,12R,15S,18R,21S,24R)-6,18-bis(4-((5-(5-fluoropyridin-2-yl)-1H-pyrazol-1-yl)methyl)benzyl)-3,9,15,21-tetraisobutyl-4,10,12,16,22,24-hexamethyl-1,7,13,19-tetraoxa-4,10,16,22-tetraazacyclotetracosan-2,5,8,11,14,17,20,23-octaone], which minimal effective concentration [1] is on record?
Answer: 10 to 100 µM

Question: And the minimal effective concentration [2]?
Answer: 0.0001 to 0.001 µM

Source: patent US11331369B2, “Endoparasitic depsipeptides” (Zoetis Services LLC, priority 2017, dated 2022)
